Measurements taken from patent publication US9700516B2, “Compositions and methods for reducing overdose” (priority 2014, dated 2017).

Test: Effect of alkalinizing agents on the pH of a solution of 0.1 N HCl with a starting pH of 2.0
Type: physicochemical
Conditions: for pH of the solution: all tested amounts, over the times tested
Experimental: Various alkalinizing agents were added to a solution of 0.1 N HCl with a starting pH of 2.0 and the pH of the solution was tested at different time points.

With `[Mg+2].[OH-].[OH-]` [magnesium hydroxide] the pH (60 mg per 320 mL, 2 min) was 2.29, the pH (60 mg per 320 mL, 3 min) was 2.41 and the pH (60 mg per 320 mL, 4 min) was 2.47. The pH (60 mg per 320 mL, 5 min) was 2.48, the pH (60 mg per 320 mL, 6 min) was 2.48 and the pH (60 mg per 320 mL, 7 min) was 2.49. For the same molecule, the pH (60 mg per 320 mL, 8 min) was 2.49, the pH (60 mg per 320 mL, 9 min) was 2.49 and the pH (60 mg per 320 mL, 10 min) was 2.49. For the same molecule, the pH (60 mg per 320 mL, 20 min) was 2.50, the pH (60 mg per 500 mL, 2 min) was 2.12 and the pH (60 mg per 500 mL, 3 min) was 2.17. It also gave a pH (60 mg per 500 mL, 4 min) of 2.18, a pH (60 mg per 500 mL, 5 min) of 2.19 and a pH (60 mg per 500 mL, 6 min) of 2.19. The pH (60 mg per 500 mL, 7 min) was 2.19, the pH (60 mg per 500 mL, 8 min) was 2.19 and the pH (60 mg per 500 mL, 9 min) was 2.19. For the same molecule, the pH (60 mg per 500 mL, 10 min) was 2.19, the pH (60 mg per 500 mL, 20 min) was 2.19 and the “effect on pH of the solution” value (71 mg/200 ml, 81 mg/200 ml and 100 mg/200 ml) was “raised the pH of the solution to neutral or higher”. For the same molecule, the pH (90 mg per 320 mL, 2 min) was 2.37, the pH (90 mg per 320 mL, 3 min) was 2.55 and the pH (90 mg per 320 mL, 4 min) was 2.77. For the same molecule, the pH (90 mg per 320 mL, 5 min) was 3.06, the pH (90 mg per 320 mL, 6 min) was 3.13 and the pH (90 mg per 320 mL, 7 min) was 3.22. It also gave a pH (90 mg per 320 mL, 8 min) of 3.28, a pH (90 mg per 320 mL, 9 min) of 3.31 and a pH (90 mg per 320 mL, 10 min) of 3.33. For the same molecule, the pH (90 mg per 320 mL, 20 min) was 3.34, the pH (100 mg per 320 mL, 2 min) was 2.36 and the pH (100 mg per 320 mL, 3 min) was 2.53. The pH (100 mg per 320 mL, 4 min) was 2.74, the pH (100 mg per 320 mL, 5 min) was 3.07 and the pH (100 mg per 320 mL, 6 min) was 3.39. The pH (100 mg per 320 mL, 7 min) was 3.73, the pH (100 mg per 320 mL, 8 min) was 4.26 and the pH (100 mg per 320 mL, 9 min) was 5.41. For the same molecule, the pH (100 mg per 320 mL, 10 min) was 5.86, the pH (100 mg per 320 mL, 20 min) was 6.51 and the pH (100 mg per 500 mL, 2 min) was 2.21. It also gave a pH (100 mg per 500 mL, 3 min) of 2.33, a pH (100 mg per 500 mL, 4 min) of 2.38 and a pH (100 mg per 500 mL, 5 min) of 2.40. It also gave a pH (100 mg per 500 mL, 6 min) of 2.40, a pH (100 mg per 500 mL, 7 min) of 2.41 and a pH (100 mg per 500 mL, 8 min) of 2.41. For the same molecule, the pH (100 mg per 500 mL, 9 min) was 2.41, the pH (100 mg per 500 mL, 10 min) was 2.41 and the pH (100 mg per 500 mL, 20 min) was 2.41. The “effect on pH of the solution” value (100 mg/320 ml, 180 mg/500 ml, 120 mg/320 ml, 200 mg/500 ml and 240 mg/500 ml) was “rapidly raised the pH of the solution to neutral or higher”, the pH (120 mg per 320 mL, 2 min) was 2.49 and the pH (120 mg per 320 mL, 3 min) was 2.87. It also gave a pH (120 mg per 320 mL, 4 min) of 3.54, a pH (120 mg per 320 mL, 5 min) of 5.75 and a pH (120 mg per 320 mL, 6 min) of 6.65. It also gave a pH (120 mg per 320 mL, 7 min) of 7.81, a pH (120 mg per 320 mL, 8 min) of 8.55 and a pH (120 mg per 320 mL, 9 min) of 8.83. For the same molecule, the pH (120 mg per 320 mL, 10 min) was 8.94, the pH (120 mg per 320 mL, 20 min) was 9.20 and the pH (120 mg per 500 mL, 2 min) was 2.21. The pH (120 mg per 500 mL, 3 min) was 2.35, the pH (120 mg per 500 mL, 4 min) was 2.44 and the pH (120 mg per 500 mL, 5 min) was 2.52. For the same molecule, the pH (120 mg per 500 mL, 6 min) was 2.57, the pH (120 mg per 500 mL, 7 min) was 2.59 and the pH (120 mg per 500 mL, 8 min) was 2.59. The pH (120 mg per 500 mL, 9 min) was 2.59, the pH (120 mg per 500 mL, 10 min) was 2.59 and the pH (120 mg per 500 mL, 20 min) was 2.60. The “effect on pH of the solution” value (160 mg/320 ml (0.5 mg/ml)) was “rapidly raised the pH of the solution to neutral or higher”, the pH (180 mg per 500 mL, 2 min) was 2.56 and the pH (180 mg per 500 mL, 3 min) was 3.09. For the same molecule, the pH (180 mg per 500 mL, 4 min) was 3.90, the pH (180 mg per 500 mL, 5 min) was 5.69 and the pH (180 mg per 500 mL, 6 min) was 6.28. It also gave a pH (180 mg per 500 mL, 7 min) of 6.64, a pH (180 mg per 500 mL, 8 min) of 7.01 and a pH (180 mg per 500 mL, 9 min) of 7.61. The pH (180 mg per 500 mL, 10 min) was 8.25, the pH (180 mg per 500 mL, 20 min) was 9.07 and the pH (200 mg per 500 mL, 2 min) was 2.48. For the same molecule, the pH (200 mg per 500 mL, 3 min) was 2.81, the pH (200 mg per 500 mL, 4 min) was 3.54 and the pH (200 mg per 500 mL, 5 min) was 5.42. For the same molecule, the pH (200 mg per 500 mL, 6 min) was 6.63, the pH (200 mg per 500 mL, 7 min) was 7.99 and the pH (200 mg per 500 mL, 8 min) was 8.86. It also gave a pH (200 mg per 500 mL, 9 min) of 9.07, a pH (200 mg per 500 mL, 10 min) of 9.18 and a pH (200 mg per 500 mL, 20 min) of 9.41. It also gave a pH (240 mg per 500 mL, 2 min) of 2.54, a pH (240 mg per 500 mL, 3 min) of 3.14 and a pH (240 mg per 500 mL, 4 min) of 5.90. For the same molecule, the pH (240 mg per 500 mL, 5 min) was 7.73, the pH (240 mg per 500 mL, 6 min) was 9.09 and the pH (240 mg per 500 mL, 7 min) was 9.35. It also gave a pH (240 mg per 500 mL, 8 min) of 9.47, a pH (240 mg per 500 mL, 9 min) of 9.54 and a pH (240 mg per 500 mL, 10 min) of 9.59. The pH (240 mg per 500 mL, 20 min) was 9.71 and the “pH of the solution” value was “above 2.0”.
For `O=C([O-])O.[Na+]` [sodium bicarbonate], the pH (20 mg per 320 mL, 0 min) was 2.02, the pH (20 mg per 320 mL, 1 min) was 2.04 and the pH (20 mg per 320 mL, 2 min) was 2.05. For the same molecule, the pH (20 mg per 320 mL, 3 min) was 2.05, the pH (20 mg per 320 mL, 4 min) was 2.05 and the pH (20 mg per 320 mL, 5 min) was 2.05. It also gave a pH (20 mg per 320 mL, 6 min) of 2.05, a pH (20 mg per 320 mL, 7 min) of 2.05 and a pH (20 mg per 320 mL, 8 min) of 2.05. For the same molecule, the pH (20 mg per 320 mL, 9 min) was 2.05, the pH (20 mg per 320 mL, 10 min) was 2.05 and the pH (20 mg per 320 mL, 20 min) was 2.05. The pH (20 mg per 320 mL, 30 min) was 2.05, the pH (20 mg per 320 mL, 40 min) was 2.05 and the pH (20 mg per 320 mL, 50 min) was 2.05. The pH (20 mg per 320 mL, 60 min) was 2.05, the “effect on pH of the solution” value (20 mg/320 ml and 40 mg/320 ml, 60 minute timecourse) was “neither amount tested was sufficient to raise the pH to neutral or higher” and the pH (40 mg per 320 mL, 0 min) was 2.05. It also gave a pH (40 mg per 320 mL, 1 min) of 2.08, a pH (40 mg per 320 mL, 2 min) of 2.08 and a pH (40 mg per 320 mL, 3 min) of 2.08. It also gave a pH (40 mg per 320 mL, 4 min) of 2.08, a pH (40 mg per 320 mL, 5 min) of 2.09 and a pH (40 mg per 320 mL, 6 min) of 2.09. The pH (40 mg per 320 mL, 7 min) was 2.09, the pH (40 mg per 320 mL, 8 min) was 2.09 and the pH (40 mg per 320 mL, 9 min) was 2.09. The pH (40 mg per 320 mL, 10 min) was 2.09, the pH (40 mg per 320 mL, 20 min) was 2.09 and the pH (40 mg per 320 mL, 30 min) was 2.09. It also gave a pH (40 mg per 320 mL, 40 min) of 2.09, a pH (40 mg per 320 mL, 50 min) of 2.09 and a pH (40 mg per 320 mL, 60 min) of 2.09. It also gave a pH (50 mg/200 ml, 0 min) of 1.71, a pH (50 mg/200 ml, 10 min) of 1.72 and a pH (50 mg/200 ml, 20 min) of 1.72. For the same molecule, the pH (50 mg/200 ml, 30 min) was 1.72, the pH (50 mg/200 ml, 40 min) was 1.72 and the pH (100 mg/200 ml, 0 min) was 1.71. For the same molecule, the pH (100 mg/200 ml, 10 min) was 1.76, the pH (100 mg/200 ml, 20 min) was 1.75 and the pH (100 mg/200 ml, 30 min) was 1.75. For the same molecule, the pH (100 mg/200 ml, 40 min) was 1.75, the “effect on pH of the solution” value (50 and 100 mg/200 ml, 40 minute timecourse) was “neither tested amount was sufficient to raise the pH” and the “pH of the solution” value was “above 2.0”.
